We go through five compounds from the supplement of paper PMC10307832.

The first experiment relates to UMC-11. Kind of experiment: relative viability (nuclei count vs DMSO), 5 days (fraction); higher = more cells survive. Particulars: first compound 0.2 µM. The method in brief: (§1)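 Lung cancer cell lines in 1536-well plates were dosed by pin tool the day after seeding, either with one drug alone or with a fixed anchor-drug dose plus five library-drug doses (not always all listed) in √10 steps. After 5 days, cells were fixed and their nuclei stained in one step (final 0.05% Triton X-100, 1% formaldehyde, 1 ug/ml Hoechst), then counted on 4× images. Relative viability is the nuclei count in treated wells divided by that in vehicle wells. Values are medians of duplicate plates.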
For the compound `COCC1(CO)C(=O)C2CCN1CC2` (stereo unspecified) [PRIMA-1MET] + O=C(CCCCCCC(=O)Nc1ccccc1)NO [Vorinostat] (partner 1 µM), the relative viability amounted to 0.422.

`COCC1(CO)C(=O)C2CCN1CC2` (stereo unspecified) [PRIMA-1MET] + C[C@]1(O)C[C@@H](c2nc(-c3ccc4ccc(-c5ccccc5)nc4c3)c3c(N)nccn32)C1 [Linsitinib] (partner 1 µM) gave a relative viability of 1.11.

The compound `COCC1(CO)C(=O)C2CCN1CC2` (stereo unspecified) [PRIMA-1MET] + Cc1cc(Nc2cc(N3CCN(C)CC3)nc(Sc3ccc(NC(=O)C4CC4)cc3)n2)n[nH]1 [Tozasertib] (partner 0.1 µM) gave a relative viability of 0.215.

`COCC1(CO)C(=O)C2CCN1CC2` (stereo unspecified) [PRIMA-1MET] + Cc1nc(NC(=O)N2CCC[C@H]2C(N)=O)sc1-c1ccnc(C(C)(C)C(F)(F)F)c1 [Alpelisib] (partner 2 µM) returned a relative viability of 1.03.

Regarding `COCC1(CO)C(=O)C2CCN1CC2` (stereo unspecified) [PRIMA-1MET] + C[C@@H](Oc1cc(-c2cnn(C3CCNCC3)c2)cnc1N)c1c(Cl)ccc(F)c1Cl [Crizotinib] (partner 1 µM), the relative viability stood at 0.536.

The experiment is the same for the next values; noted with them: first compound 0.6325 µM.
The compound `COCC1(CO)C(=O)C2CCN1CC2` (stereo unspecified) [PRIMA-1MET] + O=C(CCCCCCC(=O)Nc1ccccc1)NO [Vorinostat] (partner 1 µM) gave a relative viability of 0.358.

`COCC1(CO)C(=O)C2CCN1CC2` (stereo unspecified) [PRIMA-1MET] + C[C@]1(O)C[C@@H](c2nc(-c3ccc4ccc(-c5ccccc5)nc4c3)c3c(N)nccn32)C1 [Linsitinib] (partner 1 µM): the relative viability was 0.887.

For the compound `COCC1(CO)C(=O)C2CCN1CC2` (stereo unspecified) [PRIMA-1MET] + Cc1cc(Nc2cc(N3CCN(C)CC3)nc(Sc3ccc(NC(=O)C4CC4)cc3)n2)n[nH]1 [Tozasertib] (partner 0.1 µM), the relative viability stood at 0.183.

For `COCC1(CO)C(=O)C2CCN1CC2` (stereo unspecified) [PRIMA-1MET] + Cc1nc(NC(=O)N2CCC[C@H]2C(N)=O)sc1-c1ccnc(C(C)(C)C(F)(F)F)c1 [Alpelisib] (partner 2 µM), the relative viability turned out to be 0.824.

`COCC1(CO)C(=O)C2CCN1CC2` (stereo unspecified) [PRIMA-1MET] + C[C@@H](Oc1cc(-c2cnn(C3CCNCC3)c2)cnc1N)c1c(Cl)ccc(F)c1Cl [Crizotinib] (partner 1 µM) gave a relative viability of 0.643.

The experiment is the same for the next values; noted with them: first compound 2 µM.
In turn, `COCC1(CO)C(=O)C2CCN1CC2` (stereo unspecified) [PRIMA-1MET] + O=C(CCCCCCC(=O)Nc1ccccc1)NO [Vorinostat] (partner 1 µM) came in with a relative viability of 0.385.

In the case of `COCC1(CO)C(=O)C2CCN1CC2` (stereo unspecified) [PRIMA-1MET] + C[C@]1(O)C[C@@H](c2nc(-c3ccc4ccc(-c5ccccc5)nc4c3)c3c(N)nccn32)C1 [Linsitinib] (partner 1 µM), the relative viability was 1.04.

The compound `COCC1(CO)C(=O)C2CCN1CC2` (stereo unspecified) [PRIMA-1MET] + Cc1cc(Nc2cc(N3CCN(C)CC3)nc(Sc3ccc(NC(=O)C4CC4)cc3)n2)n[nH]1 [Tozasertib] (partner 0.1 µM) had a relative viability of 0.195.

For `COCC1(CO)C(=O)C2CCN1CC2` (stereo unspecified) [PRIMA-1MET] + Cc1nc(NC(=O)N2CCC[C@H]2C(N)=O)sc1-c1ccnc(C(C)(C)C(F)(F)F)c1 [Alpelisib] (partner 2 µM), the relative viability came out at 1.07.

In the case of `COCC1(CO)C(=O)C2CCN1CC2` (stereo unspecified) [PRIMA-1MET] + C[C@@H](Oc1cc(-c2cnn(C3CCNCC3)c2)cnc1N)c1c(Cl)ccc(F)c1Cl [Crizotinib] (partner 1 µM), the relative viability was 0.607.

Staying with this experiment, now noted: first compound 6.325 µM.
Regarding `COCC1(CO)C(=O)C2CCN1CC2` (stereo unspecified) [PRIMA-1MET] + O=C(CCCCCCC(=O)Nc1ccccc1)NO [Vorinostat] (partner 1 µM), the relative viability was 0.477.

The compound `COCC1(CO)C(=O)C2CCN1CC2` (stereo unspecified) [PRIMA-1MET] + C[C@]1(O)C[C@@H](c2nc(-c3ccc4ccc(-c5ccccc5)nc4c3)c3c(N)nccn32)C1 [Linsitinib] (partner 1 µM) had a relative viability of 0.97.

In the case of `COCC1(CO)C(=O)C2CCN1CC2` (stereo unspecified) [PRIMA-1MET] + Cc1cc(Nc2cc(N3CCN(C)CC3)nc(Sc3ccc(NC(=O)C4CC4)cc3)n2)n[nH]1 [Tozasertib] (partner 0.1 µM), the relative viability was determined as 0.193.

`COCC1(CO)C(=O)C2CCN1CC2` (stereo unspecified) [PRIMA-1MET] + Cc1nc(NC(=O)N2CCC[C@H]2C(N)=O)sc1-c1ccnc(C(C)(C)C(F)(F)F)c1 [Alpelisib] (partner 2 µM) yielded a relative viability of 1.13.

Consider `COCC1(CO)C(=O)C2CCN1CC2` (stereo unspecified) [PRIMA-1MET] + C[C@@H](Oc1cc(-c2cnn(C3CCNCC3)c2)cnc1N)c1c(Cl)ccc(F)c1Cl [Crizotinib] (partner 1 µM), for which the relative viability was determined as 0.726.

Still in this experiment, the particulars now being: first compound 20 µM.
Regarding `COCC1(CO)C(=O)C2CCN1CC2` (stereo unspecified) [PRIMA-1MET] + O=C(CCCCCCC(=O)Nc1ccccc1)NO [Vorinostat] (partner 1 µM), the relative viability amounted to 0.479.

As to `COCC1(CO)C(=O)C2CCN1CC2` (stereo unspecified) [PRIMA-1MET] + C[C@]1(O)C[C@@H](c2nc(-c3ccc4ccc(-c5ccccc5)nc4c3)c3c(N)nccn32)C1 [Linsitinib] (partner 1 µM), the relative viability was determined as 0.94.

`COCC1(CO)C(=O)C2CCN1CC2` (stereo unspecified) [PRIMA-1MET] + Cc1cc(Nc2cc(N3CCN(C)CC3)nc(Sc3ccc(NC(=O)C4CC4)cc3)n2)n[nH]1 [Tozasertib] (partner 0.1 µM) returned a relative viability of 0.201.

As to `COCC1(CO)C(=O)C2CCN1CC2` (stereo unspecified) [PRIMA-1MET] + Cc1nc(NC(=O)N2CCC[C@H]2C(N)=O)sc1-c1ccnc(C(C)(C)C(F)(F)F)c1 [Alpelisib] (partner 2 µM), the relative viability amounted to 0.899.

`COCC1(CO)C(=O)C2CCN1CC2` (stereo unspecified) [PRIMA-1MET] + C[C@@H](Oc1cc(-c2cnn(C3CCNCC3)c2)cnc1N)c1c(Cl)ccc(F)c1Cl [Crizotinib] (partner 1 µM): the relative viability amounted to 0.586.

A further experiment concerns HCC-827. The experiment is described as above. The conditions noted are these: first compound 0.2 µM. The method, boiled down: as §1
Consider `COCC1(CO)C(=O)C2CCN1CC2` (stereo unspecified) [PRIMA-1MET] + O=C(CCCCCCC(=O)Nc1ccccc1)NO [Vorinostat] (partner 1 µM), for which the relative viability was found to be 0.939.

Consider `COCC1(CO)C(=O)C2CCN1CC2` (stereo unspecified) [PRIMA-1MET] + C[C@]1(O)C[C@@H](c2nc(-c3ccc4ccc(-c5ccccc5)nc4c3)c3c(N)nccn32)C1 [Linsitinib] (partner 1 µM), for which the relative viability was determined as 1.04.

`COCC1(CO)C(=O)C2CCN1CC2` (stereo unspecified) [PRIMA-1MET] + Cc1cc(Nc2cc(N3CCN(C)CC3)nc(Sc3ccc(NC(=O)C4CC4)cc3)n2)n[nH]1 [Tozasertib] (partner 0.1 µM) yielded a relative viability of 0.424.

Take `COCC1(CO)C(=O)C2CCN1CC2` (stereo unspecified) [PRIMA-1MET] + Cc1nc(NC(=O)N2CCC[C@H]2C(N)=O)sc1-c1ccnc(C(C)(C)C(F)(F)F)c1 [Alpelisib] (partner 2 µM): the relative viability stood at 1.01.

As to `COCC1(CO)C(=O)C2CCN1CC2` (stereo unspecified) [PRIMA-1MET] + C[C@@H](Oc1cc(-c2cnn(C3CCNCC3)c2)cnc1N)c1c(Cl)ccc(F)c1Cl [Crizotinib] (partner 1 µM), the relative viability is 1.06.

The experiment is the same for the next values; noted with them: first compound 0.6325 µM.
`COCC1(CO)C(=O)C2CCN1CC2` (stereo unspecified) [PRIMA-1MET] + O=C(CCCCCCC(=O)Nc1ccccc1)NO [Vorinostat] (partner 1 µM) showed a relative viability of 0.173.
